# Measured values as given in PMC4773904 (The New England journal of medicine, 2015).
# What was measured:
# [1] = system: ALK; settings: in cell lines; cited from earlier work
# [2] = system: Ba/F3 cells expressing EML4-ALK C1156Y–L1198F; assay: Ba/F3 cell-survival assay; format: cell-based
# [3] = system: Ba/F3 cells expressing EML4-ALK L1198F; assay: Ba/F3 cell-survival assay; format: cell-based
# [4] = system: metastatic ALK-rearranged NSCLC; assay: Case report: treatment course of a patient with metastatic ALK-rearranged NSCLC; format: in vivo, human; settings: first restaging CT after 5 weeks of treatment, phase 1 trial, single patient
# [5] = system: previously treated NSCLC; settings: patients with previously treated NSCLC, phase 3 trial; cited from earlier work
SMILES,Potency against ALK [1],Sensitivity in cell-survival assay (in words) [2],Sensitivity in cell-survival assay (in words) [3],Reduction in tumor burden [4] [%],Response rate [5] [%]
"C[C@H]1Oc2cc(cnc2N)-c2c(nn(C)c2C#N)CN(C)C(=O)c2ccc(F)cc21 [lorlatinib, (10R)-7-amino-12-fluoro-2,10,16-trimethyl-15-oxo-10,15,16,17-tetrahydro-2H-8,4-(metheno)pyrazolo [4,3-h][2,5,11]-benzoxadiazacyclotetra decine-3-carbonitrile]",subnanomolar to low nanomolar,resistant,variable degrees of resistance,41,
CCC1=C[C@@H]2CN(C1)Cc1c([nH]c3ccccc13)[C@@](C(=O)OC)(c1cc3c(cc1OC)N(C)[C@H]1[C@@](O)(C(=O)OC)[C@H](OC(C)=O)[C@]4(CC)C=CCN5CC[C@]31[C@@H]54)C2 [vinorelbine],,,,,0.8
